This note sets out measurements from patent US9376444.

Read-outs that look alike come from different tables or passages of the source.

For the data set the following is noted: rcm bond, Grubbs II, DCM, 40.0 °C.

In turn, `COC(=O)Nc1ccc2c(c1)NC(=O)[C@H](C)/C=C/C[C@H](NC(=O)OC(C)(C)C)c1cc-2ccn1` yielded a ring closure, yield of all isomers (from C=CC[C@H](NC(=O)OC(C)(C)C)c1cc(-c2ccc(NC(=O)OC)cc2NC(=O)[C@H](C)C=C)ccn1, 11.76 mM, 4.0 h) of 71.2%. For the molecule `COC(=O)Nc1ccc2c(c1)NC(=O)[C@H](C)/C=C/C[C@H](NC(=O)OC(C)(C)C)c1nc-2cn1COCC[Si](C)(C)C`, the ring closure, yield of all isomers (from C=CC[C@H](NC(=O)OC(C)(C)C)c1nc(-c2ccc(NC(=O)OC)cc2NC(=O)[C@H](C)C=C)cn1COCC[Si](C)(C)C, 9.73 mM, 21.5 h) was 74%. Regarding `C[C@@H]1/C=C/C[C@H](NC(=O)OC(C)(C)C)c2cn(COCC[Si](C)(C)C)c(n2)-c2ccc([N+](=O)[O-])cc2NC1=O`, the ring closure, yield of all isomers (from C=CC[C@H](NC(=O)OC(C)(C)C)c1cn(COCC[Si](C)(C)C)c(-c2ccc([N+](=O)[O-])cc2NC(=O)[C@H](C)C=C)n1, 1.016 mM) worked out at 55.9%.
